Measurements: publication PMC8285431, “Machine learning designs non-hemolytic antimicrobial peptides” (Chemical Science, 2021)
Ends that are not written are not given here.

What was measured:
human red blood cells = conditions: 10 mM phosphate buffer saline pH 7.4, 25 °C, 4 h, visual inspection, 0.1% Triton X-100 positive control
Procedure: Compounds were subjected to a hemolysis assay to assess the hemolytic effect on human red blood cells (hRBCs). The blood was obtained from Interregionale Blutspende SRK AG, Bern, Switzerland. 1.5 mL of whole blood was centrifuged at 3000 rpm for 15 minutes at 4 °C. The plasma was discarded, and the hRBC pellet was re-suspended in 5 mL of PBS (pH 7.4) then centrifuged at 3000 rpm for 5 minutes at 4 °C. The washing of hRBC was repeated three times and the remaining pellet was re-suspended in 10 mL of PBS.
The samples were prepared as the initial concentration of 4000 μg mL^−1 in PBS, added to the first well of 96-well microtiter plate (TPP, untreated) and diluted serially by 1/2. […] Controls on each plate included a blank medium control (PBS 100 μL) and a hemolytic activity control (0.1% Triton X-100). 100 μL of hRBC suspension was incubated with 100 μL of each sample in PBS in 96-well plate (Nunc 96-Well Polystyrene Conical Bottom MicroWell Plates). After the plates were incubated for 4 h at room temperature, minimal hemolytic concentration (MHC) was determined by visual inspection of the wells. 100 μL supernatants was carefully pipetted to a flat bottom, clear wells plate (TPP® tissue culture plates, polystyrene).

A. baumannii = assay: MIC, broth microdilution; format: cell-based, Acinetobacter baumannii; conditions: Mueller–Hinton medium, 16–20 h at 37 °C, trifluoroacetate salts
Source text: (§1) We synthesized the selected 14 GN and 14 GP peptides by solid phase peptide synthesis and evaluated the activity of their HPLC-purified trifluoroacetate salts by determining minimum inhibitory concentrations (MIC) against bacteria by broth microdilution assay in Muller–Hinton medium and minimum hemolysis concentrations (MHC) on human red blood cells by serial dilution in phosphate buffer saline (Table 1).
(§2) To determine the minimal inhibitory concentration (MIC), the broth microdilution method was used. A colony of bacteria was grown in LB (Lysogeny broth) medium overnight at 37 °C. The samples were prepared as stock solutions of 8 mg mL^−1 in H2O, diluted to the initial concentration of 64 or 128 μg mL^−1 in 300 μL Mueller–Hinton (MH) medium, added to the first well of 96-well microtiter plate (TPP, untreated), and diluted serially by 1/2. The concentration of the bacteria was quantified by measuring absorbance at 600 nm and diluted to OD600 = 0.022 in MH medium. The sample solutions (150 μL) were mixed with 4 μL diluted bacterial suspension with a final inoculation of about of 5 × 10^5 CFU. The plates were incubated at 37 °C until satisfactory growth (∼18 h). […] The MIC was defined as the lowest concentration of the peptide dendrimer that inhibited visible growth of the tested bacteria, as detected after treatment with MTT.

MRSA = assay: MIC, broth microdilution; format: cell-based, methicillin-resistant Staphylococcus aureus; conditions: Mueller–Hinton medium, 16–20 h at 37 °C, trifluoroacetate salts
Source text: as §1, §2

E. coli = assay: MIC, broth microdilution; format: cell-based, Escherichia coli; conditions: Mueller–Hinton medium, 16–20 h at 37 °C, trifluoroacetate salts
Source text: as §1, §2

P. aeruginosa = assay: MIC, broth microdilution; format: cell-based, Pseudomonas aeruginosa; conditions: Mueller–Hinton medium, 16–20 h at 37 °C, trifluoroacetate salts
Source text: as §1, §2

[1] = tested on: P. aeruginosa PA14 2P4 (pmrB); assay: MIC, broth microdilution; format: cell-based; conditions: spontaneous mutant, polymyxin B resistant; Müller–Hinton medium, 16–20 h, 37 °C; two independent experiments in duplicate
Procedure: (§3) To determine the minimal inhibitory concentration (MIC), the broth microdilution method was used. A colony of bacteria was grown in LB (Lysogeny broth) medium overnight at 37 °C. The samples were prepared as stock solutions of 8 mg mL^−1 in H2O, diluted to the initial concentration of 64 or 128 μg mL^−1 in 300 μL Mueller–Hinton (MH) medium, added to the first well of 96-well microtiter plate (TPP, untreated), and diluted serially by 1/2. The concentration of the bacteria was quantified by measuring absorbance at 600 nm and diluted to OD600 = 0.022 in MH medium. The sample solutions (150 μL) were mixed with 4 μL diluted bacterial suspension with a final inoculation of about of 5 × 10^5 CFU. The plates were incubated at 37 °C until satisfactory growth (∼18 h). For each test, two columns of the plate were kept for sterility control (broth only) and growth control (broth with bacterial inoculums, no antibiotics). The MIC was defined as the lowest concentration of the peptide dendrimer that inhibited visible growth of the tested bacteria, as detected after treatment with MTT.

[2] = tested on: P. aeruginosa PA14 4.18 (pmrB); assay: MIC, broth microdilution; format: cell-based; conditions: spontaneous mutant, polymyxin B resistant; Müller–Hinton medium, 16–20 h, 37 °C; two independent experiments in duplicate
Procedure: as §3

[3] = tested on: P. aeruginosa PA14 4.13 (phoQ); assay: MIC, broth microdilution; format: cell-based; conditions: spontaneous mutant, polymyxin B resistant; Müller–Hinton medium, 16–20 h, 37 °C; two independent experiments in duplicate
Procedure: as §3

P. aeruginosa PA14 = assay: MIC, broth microdilution; format: cell-based; conditions: Gram-negative; Müller–Hinton medium, 16–20 h, 37 °C; two independent experiments in duplicate
Procedure: as §3

B. cenocepacia = format: cell-based; conditions: MDR Gram-negative strain; Müller–Hinton medium, 16–20 h, 37 °C; two independent experiments in duplicate
Procedure: as §3

E. cloacae = format: cell-based; conditions: MDR Gram-negative strain; Müller–Hinton medium, 16–20 h, 37 °C; two independent experiments in duplicate
Procedure: as §3

P. aeruginosa ZEM-1A = format: cell-based; conditions: MDR Gram-negative strain; Müller–Hinton medium, 16–20 h, 37 °C; two independent experiments in duplicate
Procedure: as §3

P. aeruginosa ZEM9A = format: cell-based; conditions: MDR Gram-negative strain; Müller–Hinton medium, 16–20 h, 37 °C; two independent experiments in duplicate
Procedure: as §3

S. epidermidis = format: cell-based; conditions: MDR Gram-positive strain; Müller–Hinton medium, 16–20 h, 37 °C; two independent experiments in duplicate; in µg/mL
Procedure: as §3

S. maltophilia = format: cell-based; conditions: MDR Gram-negative strain; Müller–Hinton medium, 16–20 h, 37 °C; two independent experiments in duplicate
Procedure: as §3

K. pneumoniae NCTC148 = format: cell-based, Klebsiella pneumoniae; conditions: MDR Gram-negative strain; Müller–Hinton medium, 16–20 h, 37 °C; two independent experiments in duplicate
Procedure: as §3

K. pneumoniae (OXA-48) = format: cell-based, Klebsiella pneumoniae; conditions: MDR Gram-negative strain; Müller–Hinton medium, 16–20 h, 37 °C; two independent experiments in duplicate
Procedure: as §3

AGRLQKVFKVIAK-NH2 [GN13]
MHC (minimal hemolytic concentration) (human red blood cells): >2000 µg/mL

AKKVVKKIYKRFQK-NH2 [GP10]
MHC (minimal hemolytic concentration) (human red blood cells): >2000 µg/mL

AKRIRKLIKKIFKKI-NH2 [GN1]
MHC (minimal hemolytic concentration) (human red blood cells): >2000 µg/mL

ARKFRRLVKKLR-NH2 [GP11]
MHC (minimal hemolytic concentration) (human red blood cells): >2000 µg/mL

ARKKWRKRLKKLKI-NH2 [GP9]
MHC (minimal hemolytic concentration) (human red blood cells): >2000 µg/mL

ARKWRKFLKKI-NH2 [GP7]
MHC (minimal hemolytic concentration) (human red blood cells): >2000 µg/mL

FLHSIGKAIGRLLR-NH2 [GP3]
MHC (minimal hemolytic concentration) (human red blood cells): 250 µg/mL

FLKAVKKLIPSLF-NH2 [GP1]
MHC (minimal hemolytic concentration) (human red blood cells): 2000 µg/mL

GIGAVLNVAKKLL-NH2 [GP4]
MHC (minimal hemolytic concentration) (human red blood cells): >2000 µg/mL

GNWRKIVHKIKKAG-NH2 [GN12]
MHC (minimal hemolytic concentration) (human red blood cells): >2000 µg/mL

GRIKRIRKIIHKY-NH2 [GP8]
MHC (minimal hemolytic concentration) (human red blood cells): >2000 µg/mL

IDKWKAAFKKIKNLF-NH2 [GN3]
MHC (minimal hemolytic concentration) (human red blood cells): 500 µg/mL

IHKLAKLAKNVL-NH2 [GN14]
MHC (minimal hemolytic concentration) (human red blood cells): >2000 µg/mL

IRRIRKKIKKIFKKI-NH2 [GN10]
MHC (minimal hemolytic concentration) (human red blood cells): >2000 µg/mL

KFFRKLKKLVKK-NH2 [GN5]
MHC (minimal hemolytic concentration) (human red blood cells): >2000 µg/mL

KRIRKWVRRILKKL-NH2 [GN7]
MHC (minimal hemolytic concentration) (human red blood cells): 250 µg/mL

KRLWKIRQRIAK-NH2 [GP13]
MHC (minimal hemolytic concentration) (human red blood cells): >2000 µg/mL

KRLWKRIYRLLKK-NH2 [GN9]
MHC (minimal hemolytic concentration) (human red blood cells): 250 µg/mL

KVARFLKKFFR-NH2 [GP5]
MHC (minimal hemolytic concentration) (human red blood cells): >2000 µg/mL

LKKLWKRIIKVGR-NH2 [GP6]
MHC (minimal hemolytic concentration) (human red blood cells): >2000 µg/mL

LNALKKVFQKIH-NH2 [GP14]
MHC (minimal hemolytic concentration) (human red blood cells): >2000 µg/mL

LNALKKVFQKIRQGL [GN4, ML-generated linear peptide carboxamide from the P. aeruginosa/A. baumannii model]
MIC A. baumannii (A. baumannii): 16 µg/mL | MHC (minimal hemolytic concentration) (human red blood cells): >2000 µg/mL | MIC MRSA (MRSA): >64 µg/mL | MIC E. coli (E. coli): 4 µg/mL | MIC P. aeruginosa (P. aeruginosa): 32 µg/mL

LRKARRLLKKLRARL-NH2 [GN11]
MHC (minimal hemolytic concentration) (human red blood cells): >2000 µg/mL

LRKARRLVKKLA-NH2 [GP12]
MHC (minimal hemolytic concentration) (human red blood cells): >2000 µg/mL

LRKFWKKIRKFLKKI-NH2 [GN8]
MHC (minimal hemolytic concentration) (human red blood cells): 62.5 µg/mL

Polymyxin B
MIC P. aeruginosa PA14 2P4 (pmrB) [1]: 2 µg/mL | MIC P. aeruginosa PA14 4.18 (pmrB) [2]: 2 µg/mL | MIC P. aeruginosa PA14 4.13 (phoQ) [3]: 1 µg/mL | MIC P. aeruginosa PA14 (P. aeruginosa PA14): < 0.5 µg/mL | MIC B. cenocepacia (B. cenocepacia): > 64 µg/mL | MIC E. cloacae (E. cloacae): 1 µg/mL | MIC P. aeruginosa ZEM-1A (P. aeruginosa ZEM-1A): 0.5 µg/mL | MIC P. aeruginosa ZEM9A (P. aeruginosa ZEM9A): 4 µg/mL | MIC S. epidermidis (S. epidermidis): 32–64 | MIC S. maltophilia (S. maltophilia): 0.5 µg/mL | MIC K. pneumoniae NCTC148 (K. pneumoniae NCTC148): 1 µg/mL | MIC K. pneumoniae (OXA-48) (K. pneumoniae (OXA-48)): 1 µg/mL

RLRKKWRKLKKLL-NH2 [GN6]
MHC (minimal hemolytic concentration) (human red blood cells): 2000 µg/mL

RRWKWRRKIKKWL-NH2 [GN2]
MHC (minimal hemolytic concentration) (human red blood cells): 1000 µg/mL

RWRWPILGRILR-NH2 [GP2]
MHC (minimal hemolytic concentration) (human red blood cells): 500 µg/mL
